We go through 32 compounds from patent US20100249243A1, “NOVEL BETA-HYDROXYKETONES AND BETA-ALKOXYKETONES WITH ESTROGENIC ACTIVITY” (priority 2007, published 2010).

One assay addresses T1, ERα (Homo sapiens, UniProt P03372).
T1 sequence (P03372 1-595): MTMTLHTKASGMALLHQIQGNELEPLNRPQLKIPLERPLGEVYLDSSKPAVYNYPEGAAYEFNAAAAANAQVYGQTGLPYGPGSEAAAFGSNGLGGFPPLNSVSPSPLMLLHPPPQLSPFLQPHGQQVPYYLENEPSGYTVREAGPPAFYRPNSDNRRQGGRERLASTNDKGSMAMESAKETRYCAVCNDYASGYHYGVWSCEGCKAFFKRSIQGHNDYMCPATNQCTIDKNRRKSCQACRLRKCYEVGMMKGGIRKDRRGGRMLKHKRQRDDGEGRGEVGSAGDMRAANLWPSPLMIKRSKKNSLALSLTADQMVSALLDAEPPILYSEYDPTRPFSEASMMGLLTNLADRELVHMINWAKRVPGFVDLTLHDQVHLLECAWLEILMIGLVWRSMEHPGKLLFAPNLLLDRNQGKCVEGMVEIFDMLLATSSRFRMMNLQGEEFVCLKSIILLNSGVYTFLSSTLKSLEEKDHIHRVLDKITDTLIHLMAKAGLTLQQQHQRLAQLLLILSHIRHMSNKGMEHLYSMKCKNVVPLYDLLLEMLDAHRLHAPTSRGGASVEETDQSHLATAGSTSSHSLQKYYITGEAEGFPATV
The assay can be described thus: ERα luciferase reporter (pERE2TATA-LUC) transactivation assay in transfected HEK293 cells. It counts as cell-based. Further details: expressed in transfected cells; host or cells: HEK293. Conditions: 24 hours; for ERα in vitro activity (receptor activation relative to 10 nM E2): Table 2, previously published compounds, test compound 10 μM; for ERα receptor activation relative to 10 nM E2 corresponding 100: Table 1, sample concentration 10 μM, mean of at least three independent transfections, SEM typically <15%. How it is done: (§1) All other reagents were of reagent grade from Sigma or Fluka. One day before transfection, HEK293 cells were seeded in 48-well plates (70×10^3 cells per well) in phenol-free Dulbecco's modified Eagle medium supplemented with 5% delipidated fetal bovine serum (Sigma) and antibiotics. After a medium change, the cells were transfected for 4 hours with 5 ng ERα or ERβ expression vector, 75 ng reporter plasmid pERE2TATA-LUC and 20 ng control plasmid pCMVβ by the calcium phosphate method. After transfection, the cells received fresh medium containing either vehicle (0.1% v/v) or test compound (10 μM). After 24 hours, the cells were washed, lysed and luciferase and β-galactosidase activities were determined from 20 μl of lysates with the Victor^2TM reader (PerkinElmer Wallac, Turku, Finland). […] The data are means±SEM of at least three independent transfections.

In a further assay the target is ERβ (Homo sapiens, UniProt Q92731). Nature of the assay: ERβ luciferase reporter (pERE2TATA-LUC) transactivation assay in transfected HEK293 cells. It counts as cell-based. Further details: expressed in transfected cells; host or cells: HEK293. As to conditions: for ERβ in vitro activity (receptor activation relative to 10 nM E2): Table 2, previously published compounds, test compound 10 μM, 24 hours; for Emax at 10 µM: HEK293, 24 h. How it is done:
as §1
Background: A reporter such as luciferase makes a cellular process visible.

The mark [1] stands for this setting: read-out: ERβ receptor activation relative to 10 nM E2 corresponding 100, Table 1, sample concentration 10 μM, mean of at least three independent transfections, SEM typically <15%.
[2] abbreviates: read-out: ERβ in vitro activity (receptor activation relative to 10 nM E2), Table 2, previously published compounds, test compound 10 μM.

Molecules are shown by their SMILES. Read-outs that look alike come from different tables or passages of the source.

Chain of ERβ (Q92731 whole entry): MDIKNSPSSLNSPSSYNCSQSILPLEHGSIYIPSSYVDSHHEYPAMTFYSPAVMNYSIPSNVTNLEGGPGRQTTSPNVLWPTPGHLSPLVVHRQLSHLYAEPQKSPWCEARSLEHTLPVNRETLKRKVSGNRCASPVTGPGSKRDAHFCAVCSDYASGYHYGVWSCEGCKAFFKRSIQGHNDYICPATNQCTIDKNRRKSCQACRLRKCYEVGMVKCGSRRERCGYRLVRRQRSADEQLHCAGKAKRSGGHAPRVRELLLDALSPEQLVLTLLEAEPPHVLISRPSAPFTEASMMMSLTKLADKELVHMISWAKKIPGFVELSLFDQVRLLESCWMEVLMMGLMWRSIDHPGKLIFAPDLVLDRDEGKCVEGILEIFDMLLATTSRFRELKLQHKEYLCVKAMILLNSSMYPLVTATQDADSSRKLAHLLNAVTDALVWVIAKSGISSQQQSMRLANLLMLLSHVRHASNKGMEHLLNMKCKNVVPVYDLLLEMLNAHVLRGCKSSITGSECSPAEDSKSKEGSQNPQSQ

For the compound `O=C(CCc1ccccc1)CC(O)c1ccccc1` (single isomer, unassigned) [Compound 56a, 1-Hydroxy-1,5-diphenyl-pentan-3-one], at ERα, the “ERα in vitro activity (receptor activation relative to 10 nM E2)” value amounted to 78.8%. Besides, the “ERβ in vitro activity (receptor activation relative to 10 nM E2)” value on ERβ came out at 20.5%.
The matching figures for `O=C(CCc1ccccc1)CC(O)c1ccccc1` (single isomer, unassigned) [Compound 56b, 1-Hydroxy-1,5-diphenyl-pentan-3-one]: 25.3% and 2.8%.
As for `COc1ccc(C(=O)CC(O)Cc2ccc(OCCN(C)C)cc2)cc1` (stereo not shown) [Compound 12ab, 4-[4-(2-Dimethylamino-ethoxy)phenyl]-3-hydroxy-1-(4-methoxy-phenyl)-butan-1-one], the “ERα receptor activation relative to 10 nM E2 corresponding 100” value on ERα worked out at 0%. In addition, the Emax at 10 µM at ERβ (setting [1]) is -8.7%.
As to `O=C(CC(O)Cc1ccccc1)c1ccc(O)cc1` (stereo not shown) [Compound 18ab, 3-Hydroxy-1-(4-hydroxyphenyl)-4-phenyl-butan-1-one], the “ERα receptor activation relative to 10 nM E2 corresponding 100” value at ERα is 22.6%. The Emax at 10 µM on ERβ (setting [1]) turned out to be 58%.
On to `O=C(Cc1ccccc1)CC(O)c1cccc(O)c1` (stereo not shown) [Compound 19ab, 4-Hydroxy-4-(3-hydroxyphenyl)-1-phenyl-butan-2-one], for which, at ERα, the “ERα receptor activation relative to 10 nM E2 corresponding 100” value stood at 12.0%. Further, the Emax at 10 µM on ERβ (setting [1]) is 7.7%.
Take `O=C(Cc1ccccc1)CC(O)CCc1ccccc1` (stereo not shown) [Compound 20ab, 4-Hydroxy-1,6-diphenylhexan-2-one]: the “ERα receptor activation relative to 10 nM E2 corresponding 100” value on ERα came to 4.3%. The Emax at 10 µM on ERβ (setting [1]) worked out at 0.2%.
With `O=C(Cc1cccc(F)c1)CC(O)CCc1ccccc1` (stereo not shown) [Compound 21ab, 1-(3-Fluorophenyl)-4-hydroxy-6-phenyl-hexan-2-one], the “ERα receptor activation relative to 10 nM E2 corresponding 100” value on ERα is recorded as 25.1%. Further, at ERβ (setting [1]), the Emax at 10 µM came out at 21.1%.
Turning to `CC(O)(CC(=O)CCc1ccc(O)cc1)c1ccccc1` (stereo not shown) [Compound 23ab, 5-Hydroxy-1-(4-hydroxy-phenyl)-5-phenyl-hexan-3-one], the “ERα receptor activation relative to 10 nM E2 corresponding 100” value at ERα was 80.3%. On ERβ (setting [1]), the Emax at 10 µM amounted to 116%.
For `O=C(CCc1ccccc1)CC(O)Cc1ccc(O)cc1` (stereo not shown) [Compound 25ab, 5-Hydroxy-6-(4-hydroxy-phenyl)-1-phenyl-hexan-3-one], on ERα, the “ERα receptor activation relative to 10 nM E2 corresponding 100” value was determined as 51.4%. Besides, on ERβ (setting [1]), the Emax at 10 µM was found to be 6.1%.
As to `O=C(CCc1ccccc1)CC(O)Cc1ccc(F)cc1` (stereo not shown) [Compound 26ab, 6-(4-Fluorophenyl)-5-hydroxy-1-phenyl-hexan-3-one], the “ERα receptor activation relative to 10 nM E2 corresponding 100” value on ERα is 35.0%. Moreover, the Emax at 10 µM at ERβ (setting [1]) came to 3.9%.
`O=C(CCc1ccccc1)CC(O)Cc1cccc2ccccc12` (stereo not shown) [Compound 27ab, 5-Hydroxy-6-naphthalen-1-yl-1-phenyl-hexan-3-one]: the “ERα receptor activation relative to 10 nM E2 corresponding 100” value on ERα came to 12.1%. Further, at ERβ (setting [1]), the Emax at 10 µM was 1.7%.
Turning to `O=C(CCc1ccccc1O)CC(O)Cc1ccccc1` (stereo not shown) [Compound 30ab, 5-Hydroxy-1-(2-hydroxy-phenyl)-6-phenyl-hexan-3-one], the “ERα receptor activation relative to 10 nM E2 corresponding 100” value at ERα is given as 45.2%. In addition, the Emax at 10 µM at ERβ (setting [1]) worked out at 5.1%.
Regarding `O=C(CCc1ccccc1O)CC(O)Cc1ccc(F)cc1` (stereo not shown) [Compound 32ab, 6-(4-Fluoro-phenyl)-5-hydroxy-1-(2-hydroxy-phenyl)-hexan-3-one], the “ERα receptor activation relative to 10 nM E2 corresponding 100” value on ERα is reported as 21.6%. Also, the Emax at 10 µM at ERβ (setting [1]) came out at 11.1%.
The matching figures for `O=C(CCc1ccc(O)cc1)CC(O)Cc1ccc(F)cc1` (stereo not shown) [Compound 33ab, 6-(4-Fluoro-phenyl)-5-hydroxy-1-(4-hydroxy-phenyl)-hexan-3-one]: 28.6% and 21.2%.
The matching figures for `CC(O)(CC(=O)CCCc1ccc(O)cc1)c1ccccc1` (stereo not shown) [Compound 37ab, 6-Hydroxy-1-(4-hydroxy-phenyl)-6-phenyl-heptan-4-one]: 90.9% and 103%.
As to `O=C(CCCc1ccccc1)CC(O)Cc1ccccc1` (stereo not shown) [Compound 38ab, 2-Hydroxy-1,7-diphenyl-heptan-4-one], on ERα, the “ERα receptor activation relative to 10 nM E2 corresponding 100” value is listed as 24.7%. Further, at ERβ (setting [1]), the Emax at 10 µM is 9.1%.
With `O=C(CCCc1ccccc1)CC(O)Cc1ccc(O)cc1` (stereo not shown) [Compound 39ab, 2-Hydroxy-1-(4-hydroxy-phenyl)-7-phenyl-heptan-4-one], the “ERα receptor activation relative to 10 nM E2 corresponding 100” value at ERα was found to be 16.0%. Further, the Emax at 10 µM at ERβ (setting [1]) was 2.4%.
In the case of `O=C(CCCc1ccc(O)c(O)c1)CC(O)Cc1ccccc1` (stereo not shown) [Compound 41ab, 2-Hydroxy-7-(3,4-dihydroxy-phenyl)-1-phenyl-heptan-4-one], the “ERα receptor activation relative to 10 nM E2 corresponding 100” value at ERα was −0.5%. On ERβ (setting [1]), the Emax at 10 µM was -0.8%.
As to `O=C(CCCc1ccccc1)CC(O)CCc1ccccc1` (stereo not shown) [Compound 43ab, 6-Hydroxy-1,8-diphenyl-octan-4-one], the “ERα receptor activation relative to 10 nM E2 corresponding 100” value at ERα was 2.2%. The Emax at 10 µM at ERβ (setting [1]) is -7.1%.
As for `COC(CCc1ccccc1)CC(=O)Cc1ccccc1` (stereo not shown) [Compound 44ab, 4-Methoxy-1,6-diphenyl-hexan-2-one], the “ERα receptor activation relative to 10 nM E2 corresponding 100” value at ERα was 12.0%. Further, on ERβ (setting [1]), the Emax at 10 µM is 0.2%.
Regarding `COC(CC(=O)CCc1ccccc1)Cc1ccccc1` (stereo not shown) [Compound 46ab, 5-Methoxy-1,6-diphenyl-hexan-3-one], on ERα, the “ERα receptor activation relative to 10 nM E2 corresponding 100” value is given as 9.9%. Besides, on ERβ (setting [1]), the Emax at 10 µM turned out to be 1.3%.
On the same counts, the results for `COc1ccc(CC(CC(=O)CCc2ccccc2)OC)cc1` (stereo not shown) [Compound 47ab, 5-Methoxy-6-(4-methoxyphenyl)-1-phenyl-hexan-3-one] are 28.5% and 4%.
Consider `COC(CC(=O)CCc1ccccc1)Cc1ccc(F)cc1` (stereo not shown) [Compound 48ab, 5-Methoxy-6-(4-fluorophenyl)-1-phenyl-hexan-3-one], for which the “ERα receptor activation relative to 10 nM E2 corresponding 100” value at ERα came to 33.1%. Moreover, the Emax at 10 µM at ERβ (setting [1]) was determined as 11.2%.
The matching figures for `COC(CC(=O)CCc1ccccc1)Cc1cccc2ccccc12` (stereo not shown) [Compound 49ab, 5-Methoxy-6-naphthalen-1-yl-1-phenyl-hexan-3-one]: 35.5% and 2%.
In the case of `COC(CC(=O)CCc1ccccc1)Cc1ccc2ccccc2c1` (stereo not shown) [Compound 50ab, 5-Methoxy-6-naphthalen-2-yl-1-phenyl-hexan-3-one], at ERα, the “ERα receptor activation relative to 10 nM E2 corresponding 100” value is given as 30.4%. Also, at ERβ (setting [1]), the Emax at 10 µM came out at 12.4%.
`COC(CC(=O)CCCc1ccccc1)Cc1ccccc1` (stereo not shown) [Compound 51ab, 2-Methoxy-1,7-diphenyl-heptan-4-one]: the “ERα receptor activation relative to 10 nM E2 corresponding 100” value at ERα worked out at 24.5%. Moreover, the Emax at 10 µM on ERβ (setting [1]) stood at 30.4%.
With `COC(CCc1ccccc1)CC(=O)CCCc1ccccc1` (stereo not shown) [Compound 52ab, 3-Methoxy-1,8-diphenyl-octan-5-one], the “ERα receptor activation relative to 10 nM E2 corresponding 100” value on ERα is on record as 3.1%. Moreover, the Emax at 10 µM at ERβ (setting [1]) is -14.6%.
As to `O=C(CC(O)Cc1ccccc1)c1ccccc1` (stereo not shown) [Compound 53ab, 3-Hydroxy-1,4-diphenyl-butan-1-one], the “ERα in vitro activity (receptor activation relative to 10 nM E2)” value on ERα was determined as 5.3%. Also, the Emax at 10 µM at ERβ (setting [2]) came out at 16.9%.
Consider `O=C(Cc1ccccc1)CC(O)c1ccccc1` (stereo not shown) [Compound 55ab, 4-Hydroxy-1,4-diphenyl-butan-2-one], for which the “ERα in vitro activity (receptor activation relative to 10 nM E2)” value on ERα stood at 0.8%. Moreover, on ERβ (setting [2]), the Emax at 10 µM was 1.6%.
For `CC(O)(CC(=O)CCc1ccccc1)c1ccccc1` (stereo not shown) [Compound 57ab, 5-Hydroxy-1,5-diphenyl-hexan-3-one], the “ERα in vitro activity (receptor activation relative to 10 nM E2)” value at ERα was 52.1%. On ERβ (setting [2]), the Emax at 10 µM was 38.4%.
On the same counts, the results for `O=C(CCc1ccccc1)CC(O)Cc1ccccc1` (stereo not shown) [Compound 58ab, 5-Hydroxy-1,6-diphenyl-hexan-3-one] are 12.8% and 0.4%.
In the case of `CC(O)(CC(=O)CCCc1ccccc1)c1ccccc1` (stereo not shown) [Compound 60ab, 6-Hydroxy-1,6-diphenyl-heptan-4-one], on ERα, the “ERα in vitro activity (receptor activation relative to 10 nM E2)” value was found to be 83.3%. On ERβ (setting [2]), the Emax at 10 µM came to 15.1%.
